Measurements: patent US7238693B2, “Aryl carbamate derivatives, preparation and use thereof” (Cerep, priority 2001, dated 2007)
pKi: −log10 of the molar value. Where two headings read alike, the source gives them in different places.

Assays:
Format in all cases: binding
[1] = biological target: T1, human isoform h5-HT4e (Homo sapiens, UniProt Q13639); assay: displacement of radioligand [3H]-GR113808 in rat glial cells expressing h5-HT4e
T1 construct: expressed in transfected cells; membrane preparation
Description: The compounds of the invention were evaluated by measuring their affinity constant Ki determined by displacing a radioligand [^3H]-GR113808 in rat glial cells stably expressing the human isoform h5-HT4e.
Confluent glial cells were washed twice in PBS and centrifuged at 300 g for 5 min. The pellet was used immediately and the cells were suspended in 10 volumes of HEPES (50 mM, pH 7.4, 4° C.) then homogenized with a teflon homogenizer and centrifuged at 40,000 g for 20 min. The pellet was resuspended in 15 volumes of HEPES. Displacement experiments were carried out in 500 μl of buffer (50 mM HEPES) containing 20 μl of radioligand [^3H]-GR113808 at a concentration of 0.2 nM for isoform h5-HT4e or at a concentration equal to half of the Kd of the radioligand for the other isoforms expressed in COS cells, 20 μl of competitor ligand at seven different concentrations and 50 μl of membrane preparation (100–200 μg of protein determined by the Bradford method). Binding was carried out at 25° C. for 30 min and the reaction was stopped by rapid vacuum filtration (Brandel Harvester) on Whatman GF/B filters preincubated in 0.1% PEI solution to minimize nonspecific binding.
Membrane-bound radioactivity is retained on the filter, which was cut and washed with cold buffer (50 mM Tris-HCl, pH 7.4) and incubated overnight in 4 ml of scintillation liquid. Radioactivity was measured in a liquid scintillation counter (Beckman LS 6500C). Binding data were obtained by computer assisted linear regression (Graph Prism Program, Graph Pad Software. Inc., San Diego, Calif.)

[2] = biological target: 5-HT1B receptor (Homo sapiens, UniProt P28222); assay: selectivity, 5-HT1B receptor; settings: up to a concentration of 1 μM
[3] = biological target: T2, 5-HT3 receptor (Homo sapiens, UniProt P46098); assay: selectivity, 5-HT3 receptor; settings: up to a concentration of 1 μM
T2 sequence (P46098 24-478): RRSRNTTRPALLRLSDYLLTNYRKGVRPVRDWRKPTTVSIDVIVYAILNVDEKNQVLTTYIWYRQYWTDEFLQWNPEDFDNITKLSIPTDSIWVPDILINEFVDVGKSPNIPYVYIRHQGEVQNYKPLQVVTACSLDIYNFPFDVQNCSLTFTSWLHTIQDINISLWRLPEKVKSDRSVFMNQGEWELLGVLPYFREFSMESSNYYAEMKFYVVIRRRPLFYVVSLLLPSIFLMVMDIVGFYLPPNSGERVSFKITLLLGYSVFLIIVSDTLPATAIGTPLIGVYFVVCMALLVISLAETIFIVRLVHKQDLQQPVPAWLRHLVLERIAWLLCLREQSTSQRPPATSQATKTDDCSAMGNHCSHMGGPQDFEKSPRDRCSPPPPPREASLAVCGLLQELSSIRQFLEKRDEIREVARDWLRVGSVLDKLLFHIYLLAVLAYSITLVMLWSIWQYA

[4] = biological target: T3, 5-HT2C receptor (Homo sapiens, UniProt P28335); assay: selectivity, 5-HT2C receptor; settings: up to a concentration of 1 μM
T3 sequence (P28335 33-458): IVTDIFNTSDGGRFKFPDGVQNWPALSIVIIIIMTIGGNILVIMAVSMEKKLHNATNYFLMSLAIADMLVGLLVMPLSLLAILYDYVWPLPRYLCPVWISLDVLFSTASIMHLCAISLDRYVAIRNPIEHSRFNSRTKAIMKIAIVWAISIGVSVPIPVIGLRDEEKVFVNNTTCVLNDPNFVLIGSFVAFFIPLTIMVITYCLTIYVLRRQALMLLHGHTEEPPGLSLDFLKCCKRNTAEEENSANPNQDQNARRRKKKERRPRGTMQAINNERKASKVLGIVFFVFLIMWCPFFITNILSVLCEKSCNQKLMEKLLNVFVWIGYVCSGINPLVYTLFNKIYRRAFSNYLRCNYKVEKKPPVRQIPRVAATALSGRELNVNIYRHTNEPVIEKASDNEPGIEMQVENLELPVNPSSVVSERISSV

[5] = biological target: 5-HT5A receptor (Homo sapiens, UniProt P47898); assay: selectivity, 5-HT5A receptor; settings: up to a concentration of 1 μM
[6] = biological target: T4, 5-HT1A receptor (Homo sapiens, UniProt P08908); assay: selectivity, 5-HT1A receptor; settings: up to a concentration of 1 μM
T4 sequence (P08908 1-422): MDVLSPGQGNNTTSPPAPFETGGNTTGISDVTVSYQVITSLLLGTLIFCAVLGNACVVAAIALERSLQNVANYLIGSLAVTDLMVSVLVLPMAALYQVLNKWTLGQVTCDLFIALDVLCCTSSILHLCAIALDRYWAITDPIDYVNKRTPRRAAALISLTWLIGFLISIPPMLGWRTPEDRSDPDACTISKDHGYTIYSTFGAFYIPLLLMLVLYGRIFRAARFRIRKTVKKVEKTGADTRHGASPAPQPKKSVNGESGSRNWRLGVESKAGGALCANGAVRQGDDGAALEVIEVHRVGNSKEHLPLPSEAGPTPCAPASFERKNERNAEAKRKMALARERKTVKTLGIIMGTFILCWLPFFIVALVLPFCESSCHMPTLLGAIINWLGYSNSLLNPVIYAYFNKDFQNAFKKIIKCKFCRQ

[7] = biological target: 5-HT7 receptor (Homo sapiens, UniProt P34969); assay: selectivity, 5-HT7 receptor; settings: up to a concentration of 1 μM
[8] = biological target: 5-HT6 receptor (Homo sapiens, UniProt P50406); assay: selectivity, 5-HT6 receptor; settings: up to a concentration of 1 μM
[9] = biological target: 5-HT2A receptor (Homo sapiens, UniProt P28223); assay: selectivity, 5-HT2A receptor; settings: up to a concentration of 1 μM
[10] = [3H]-GR113808 0.2 nM, membranes of rat glial cells expressing h5-HT4e, 25° C., 30 min, read-out: Ki

T1 sequence (Q13639 1-378 isoform Q13639-5): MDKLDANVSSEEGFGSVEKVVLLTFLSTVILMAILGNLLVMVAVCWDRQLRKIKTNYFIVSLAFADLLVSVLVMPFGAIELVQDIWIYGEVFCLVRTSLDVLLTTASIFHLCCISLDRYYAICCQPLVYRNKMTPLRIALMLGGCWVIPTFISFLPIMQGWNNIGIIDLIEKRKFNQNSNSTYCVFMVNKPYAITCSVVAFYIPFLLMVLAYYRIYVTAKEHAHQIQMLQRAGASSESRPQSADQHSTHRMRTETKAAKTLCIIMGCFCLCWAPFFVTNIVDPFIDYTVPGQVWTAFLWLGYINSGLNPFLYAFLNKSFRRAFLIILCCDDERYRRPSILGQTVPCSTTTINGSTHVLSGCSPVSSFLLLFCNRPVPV
Sequence of 5-HT6 receptor (P50406 whole entry): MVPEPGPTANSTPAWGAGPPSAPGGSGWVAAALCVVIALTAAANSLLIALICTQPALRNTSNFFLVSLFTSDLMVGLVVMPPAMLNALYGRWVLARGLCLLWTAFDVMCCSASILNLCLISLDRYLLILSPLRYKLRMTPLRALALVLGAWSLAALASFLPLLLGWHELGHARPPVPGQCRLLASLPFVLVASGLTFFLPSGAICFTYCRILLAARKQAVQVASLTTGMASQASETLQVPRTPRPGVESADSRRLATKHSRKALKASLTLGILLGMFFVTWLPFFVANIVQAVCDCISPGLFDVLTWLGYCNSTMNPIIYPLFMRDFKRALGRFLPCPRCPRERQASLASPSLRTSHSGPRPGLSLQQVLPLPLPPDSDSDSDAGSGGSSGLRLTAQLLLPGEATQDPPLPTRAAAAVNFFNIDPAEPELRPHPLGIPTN
Sequence of 5-HT2A receptor (P28223 whole entry): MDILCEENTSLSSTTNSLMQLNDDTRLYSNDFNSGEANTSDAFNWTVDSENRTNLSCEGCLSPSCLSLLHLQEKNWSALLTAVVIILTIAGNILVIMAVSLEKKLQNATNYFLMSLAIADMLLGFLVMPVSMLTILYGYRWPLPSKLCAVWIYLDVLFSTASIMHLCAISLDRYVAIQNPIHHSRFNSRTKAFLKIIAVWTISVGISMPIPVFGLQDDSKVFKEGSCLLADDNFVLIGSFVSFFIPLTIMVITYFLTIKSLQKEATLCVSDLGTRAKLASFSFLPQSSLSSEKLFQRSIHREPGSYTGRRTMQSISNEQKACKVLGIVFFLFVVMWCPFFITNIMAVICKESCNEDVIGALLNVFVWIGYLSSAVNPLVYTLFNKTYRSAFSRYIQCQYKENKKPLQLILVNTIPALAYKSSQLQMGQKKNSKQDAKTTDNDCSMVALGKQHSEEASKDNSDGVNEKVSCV
Sequence of 5-HT5A receptor (P47898 whole entry): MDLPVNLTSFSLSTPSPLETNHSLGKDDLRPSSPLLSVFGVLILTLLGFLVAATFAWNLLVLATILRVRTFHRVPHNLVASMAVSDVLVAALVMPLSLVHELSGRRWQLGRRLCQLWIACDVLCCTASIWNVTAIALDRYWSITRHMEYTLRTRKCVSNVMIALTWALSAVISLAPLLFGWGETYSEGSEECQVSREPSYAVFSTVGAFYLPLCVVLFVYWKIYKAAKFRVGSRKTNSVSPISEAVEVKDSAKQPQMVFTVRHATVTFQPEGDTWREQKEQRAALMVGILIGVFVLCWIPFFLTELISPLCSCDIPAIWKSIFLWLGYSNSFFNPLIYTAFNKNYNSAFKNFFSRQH
Sequence of 5-HT1B receptor (P28222 whole entry): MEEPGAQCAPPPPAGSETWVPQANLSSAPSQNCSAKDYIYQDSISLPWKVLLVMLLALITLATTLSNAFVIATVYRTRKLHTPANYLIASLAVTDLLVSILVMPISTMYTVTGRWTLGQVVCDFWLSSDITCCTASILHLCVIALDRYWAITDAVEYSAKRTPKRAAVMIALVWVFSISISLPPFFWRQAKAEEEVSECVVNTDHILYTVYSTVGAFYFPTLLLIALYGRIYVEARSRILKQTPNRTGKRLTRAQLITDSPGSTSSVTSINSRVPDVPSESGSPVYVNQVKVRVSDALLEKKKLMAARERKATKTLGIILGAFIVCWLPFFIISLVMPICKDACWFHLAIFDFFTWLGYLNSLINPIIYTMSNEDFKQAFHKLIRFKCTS
Sequence of 5-HT7 receptor (P34969 whole entry): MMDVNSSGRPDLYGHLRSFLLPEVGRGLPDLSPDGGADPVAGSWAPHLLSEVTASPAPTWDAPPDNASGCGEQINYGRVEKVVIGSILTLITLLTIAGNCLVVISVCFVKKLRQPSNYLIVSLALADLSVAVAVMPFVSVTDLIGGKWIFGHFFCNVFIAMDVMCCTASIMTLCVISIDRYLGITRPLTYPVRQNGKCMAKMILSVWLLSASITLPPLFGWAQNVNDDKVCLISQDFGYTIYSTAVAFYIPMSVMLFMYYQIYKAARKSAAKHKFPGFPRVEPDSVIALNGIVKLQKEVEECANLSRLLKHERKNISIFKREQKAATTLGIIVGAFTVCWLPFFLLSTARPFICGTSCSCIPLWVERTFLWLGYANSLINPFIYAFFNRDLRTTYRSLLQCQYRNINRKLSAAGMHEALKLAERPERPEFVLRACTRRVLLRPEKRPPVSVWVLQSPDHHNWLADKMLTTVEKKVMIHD

COc1ccccc1NC(=O)OCCN1CCN(c2ccccn2)CC1 [Compound 62, 2-[4-(2-pyridinyl)piperazino]ethyl-N-(2-methoxyphenyl)carbamate]
pKi [1, 10]: 8.03

CCOc1ccccc1NC(=O)OCCCN1CCN(c2ncccn2)CC1 [Compound 44, 3-[4-(2-pyrimidinyl)piperazino]propyl-N-(2-ethoxyphenyl)carbamate]
pKi [1, 10]: 7.93

CCOc1ccccc1NC(=O)OCCCN1CCN(c2cccnn2)CC1 [Compound 42, 3-[4-(3-pyridazinyl)piperazino]propyl-N-(2-ethoxyphenyl)carbamate]
pKi [1, 10]: 8.44

CCOc1ccccc1NC(=O)OCCN1CCN(c2cccc(C)c2)CC1 [Compound 21, 2-[4-(3-methylphenyl)piperazino]ethyl-N-(2-ethoxyphenyl)carbamate]
pKi [1, 10]: 7.69

CCOc1ccccc1NC(=O)OCCCN1CCN(c2ccccn2)CC1 [Compound 40, 3-[4-(2-pyridinyl)piperazino]propyl-N-(2-ethoxyphenyl)carbamate]
pKi [1, 10]: 8.00

COc1ccccc1NC(=O)OCCN1CCN(c2ncccn2)CC1 [Compound 65, 2-[4-(2-pyrimidinyl)piperazino]ethyl-N-(2-methoxyphenyl)carbamate]
pKi [1, 10]: 7.98

COc1ccccc1NC(=O)OCCCN1CCN(c2ccncc2)CC1 [Compound 83, 3-[4-(4-pyridinyl)piperazino]propyl-N-(2-methoxyphenyl)carbamate]
pKi [1, 10]: 8.00

COc1ccccc1NC(=O)OCCN1CCN(c2cccnn2)CC1 [Compound 64, 2-[4-(3-pyridazinyl)piperazino]ethyl-N-(2-methoxyphenyl)carbamate]
pKi [1, 10]: 7.97

CCOc1ccccc1NC(=O)OCCCN1CCN(c2ccncn2)CC1 [Compound 43, 3-[4-(4-pyrimidinyl)piperazino]propyl-N-(2-ethoxyphenyl)carbamate]
pKi [1, 10]: 7.98

COc1ccccc1NC(=O)OCCN1CCN(c2ccncc2)CC1 [Compound 63, 2-[4-(4-pyridinyl)piperazino]ethyl-N-(2-methoxyphenyl)carbamate]
activity for the 5-HT1B receptor [2]: no activity | activity for the 5-HT3 receptor [3]: no activity | pKi ([1]; as stated in the description, read-out: Ki for the 5-HT4 receptor): 8.30 | activity for the 5-HT2C receptor [4]: no activity | activity for the 5-HT5A receptor [5]: no activity | activity for the 5-HT1A receptor [6]: no activity | activity for the 5-HT7 receptor [7]: no activity | activity for the 5-HT6 receptor [8]: no activity | activity for the 5-HT2A receptor [9]: no activity

COc1cccc(N2CCN(CCOC(=O)Nc3ccccc3OC)CC2)c1 [Compound 51, 2-[4-(3-methoxyphenyl)piperazino]ethyl-N-(2-methoxyphenyl)carbamate]
pKi [1, 10]: 7.90

CCOc1ccccc1NC(=O)OCCN1CCN(c2ccccn2)CC1 [Compound 24, 2-[4-(2-pyridinyl)piperazino]ethyl-N-(2-ethoxyphenyl)carbamate]
pKi [1, 10]: 8.35

CCOc1ccccc1NC(=O)OCCCN1CCN(c2ccc(C)nn2)CC1 [Compound 48, 3-[4-(6-methyl-3-pyridazinyl)piperazino]propyl-N-(2-ethoxyphenyl)carbamate]
pKi [1, 10]: 8.41
